# According to patent US7271278B2, “Application of chromium-amino acid complexes in the treatment of diabetes and other diseases” (The University of Wyoming, priority 2005, dated 2007):
# System: 3T3-adipocytes
# Experiment: 2-deoxy-D-[3H] glucose uptake in 3T3-L1 adipocytes
# Assay type: cell-based, mouse
# Conditions: insulin 6 nM during differentiation
# Description: The 3T3-L1-pre-adipocytes were obtained from the American Type Culture Collection and were propagated at 37° C. in DMEM with 10% newborn calf serum plus 50 U/ml penicillin and 50 μg/ml streptomycin in an incubator under a humidified atmosphere of 5% CO2/95% air. Induction of differentiation was done one day post-confluence. Cells were maintained in differentiation medium of the following composition: DMEM, 10% FBS, […] dexamethasone, 0.5 mM 1-isobutyl-3-methylxanthine (IBMX) and ITS for three days. At day 3, the dexamethasone and IBMX were removed with ITS remaining on the cells for an additional two days. Differentiation was allowed to continue in DMEM supplemented with 10% FBS, ITS and the adipocytes were used between day 9 and 14 post-induction. Prior to the cellular assays, cells were serum starved by overnight incubation in DMEM (containing 0.2% serum).
# Glucose uptake activity was analyzed by measuring the uptake of 2-deoxy-D-[^3H] glucose as described previously (Sakoda et al. (1999) Diabetes, 48:1365-1371). Briefly, confluent 3T3-L1 adipocytes grown in 6-well plates were washed twice with serum-free DMEM and incubated with 2 ml of the same medium at 37° C. for 2 hours. The cells were washed 3 times with Krebs-Ringer-HEPES (KRH) buffer and incubated with 2 ml KRH buffer at 37° C. for 30 minutes. Insulin (6 nM) and/or Cr(pa)3 (0-25 μM) were then added to adipocytes accompanying the procedure of differentiation. Glucose uptake was initiated by the addition of 0.1 ml KRH buffer and 2-deoxy-D-[^3H] glucose (0.2 μCi/ml) and 5 mM glucose as final concentrations. Glucose uptake was terminated by washing the cells three times with cold PBS. The cells were lysed overnight with 1 ml 0.5M NaOH and 0.1% SDS (w/v). The radioactivity retained by the cell lysates was determined by a scintillation counter (Beckmann LC 6000IC) and normalized to protein amount measured with a Micro BCA Protein Assay Kit (Pierce Chemical, Rockford, Ill.).
substance,measurement,value
insulin,increase in glucose uptake by adipocytes,fourfold
